Test results from patent publication US20040229268A1, “Method and kit for identifying antibiotic-resistant microorganisms” (priority 2003, published 2004).

Tested on: mecA gene; Staphylococcus ribosomal nucleic acids
Experiment: HPA after thermal lysis, base hydrolysis and neutralization (Examples 5-7)
Type: binding, S. aureus
Settings: Table 10; neutralize 100 μl 2 N HCl containing 200 mM succinate; hybridize 45 minutes at 60° C.
Protocol: The cultured S. aureus specimens were lysed by suspending 1 μl loops of bacteria in 150 μl of lysis buffer and then incubating at 105° C. for 15 minutes. Next, 100 μl of 2 N LiOH base solution was added and RNA was hydrolyzed by incubating the mixtures at 60° C. for 15 minutes. Hydrolyzed samples were neutralized by the addition of 100 μl of a neutralizing reagent that included 2 N HCl and 100 mM succinate buffer (pH 5.5 prior to acidification with HCl). Specifically hybridized probe was detected by standard HPA, essentially as described in Example 1.
Specimens (1 μl loops of bacteria) were treated and tested essentially as described in Example 5 with the following differences: incubation for lysis was for 15 minutes and incubation for hybridization was for 45 minutes for samples shown in Tables 7-8, while incubation for lysis was for 10 minutes and incubation for hybridization was for 20 minutes for samples shown in Table 9. All of the base-treated solutions were neutralized by the addition of 250 μl of 0.8 N HCl containing 100 mM succinate.
2′-methoxy analogs of the AE-labeled DNA probes were prepared by standard phosphoramidite synthesis using 2′ methoxy phosphoramidite analogs. Additional linker positions, which are indicated by parentheses in Table 11, for probe 2 were also prepared for testing. Deoxy probes and 2′-methoxy probe analogs were tested essentially as described in Example 5, except as noted below. Probes synthesized using 2′-methoxy nucleotide analogs are particularly identified by the “MeO” designations. Brief summaries of the procedures used to obtain the results are appended to the tables.

MeO-probe 2: 2′-methoxy analog of AE-labeled probe 2 (SEQ ID NO:2); linker position not printed in Table 10 (DNA CGCTATGATCCCAATCTAACTTCCACATACC; all 2'-O-methyl, backbone and T or U not given here; acridinium ester label on internal non-nucleotide linker; listed as Staphylococcus aureus)
GP1214(Neg) RLU: 5242 RLU
GP1217(Pos) RLU: 69687 RLU
Probe alone Avg RLU: 2378 RLU
